Results as given in ChEMBL document CHEMBL1275601, “Striking species difference in the contribution of concentrative nucleoside transporter 2 to nucleoside uptake between mouse and rat hepatocytes” (Antimicrob Agents Chemother, 2010).
Active and inactive are the calls of the source. The rule behind the calls is not given here.

Legend:
Assay type in all cases: cell-based
[1] = target: T1, Equilibrative nucleoside transporter 1 (Rattus norvegicus) (UniProt O54698); experiment: Transport through ENT1 in rat hepatocytes by oil filtration assay in presence of sodium ions in Kreb-henseleit buffer; conditions: Hepatocyte
T1 sequence (whole entry): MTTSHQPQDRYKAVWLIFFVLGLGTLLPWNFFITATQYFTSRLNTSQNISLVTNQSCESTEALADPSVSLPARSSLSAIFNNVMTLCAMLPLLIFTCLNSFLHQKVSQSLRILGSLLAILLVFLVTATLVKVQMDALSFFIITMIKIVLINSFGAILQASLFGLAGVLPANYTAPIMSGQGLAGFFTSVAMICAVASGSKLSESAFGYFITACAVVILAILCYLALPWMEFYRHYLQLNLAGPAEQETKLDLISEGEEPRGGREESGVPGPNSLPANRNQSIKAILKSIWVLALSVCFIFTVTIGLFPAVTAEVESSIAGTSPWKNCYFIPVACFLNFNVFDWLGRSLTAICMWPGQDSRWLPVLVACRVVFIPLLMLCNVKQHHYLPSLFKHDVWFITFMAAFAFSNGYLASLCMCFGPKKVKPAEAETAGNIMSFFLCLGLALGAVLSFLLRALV

[2] = target: T2, Equilibrative nucleoside transporter 2 (Rattus norvegicus) (UniProt O54699); experiment: Transport through ENT2 in rat hepatocytes by oil filtration assay in presence of sodium ions in Kreb-henseleit buffer; conditions: Hepatocyte
T2 sequence (whole entry): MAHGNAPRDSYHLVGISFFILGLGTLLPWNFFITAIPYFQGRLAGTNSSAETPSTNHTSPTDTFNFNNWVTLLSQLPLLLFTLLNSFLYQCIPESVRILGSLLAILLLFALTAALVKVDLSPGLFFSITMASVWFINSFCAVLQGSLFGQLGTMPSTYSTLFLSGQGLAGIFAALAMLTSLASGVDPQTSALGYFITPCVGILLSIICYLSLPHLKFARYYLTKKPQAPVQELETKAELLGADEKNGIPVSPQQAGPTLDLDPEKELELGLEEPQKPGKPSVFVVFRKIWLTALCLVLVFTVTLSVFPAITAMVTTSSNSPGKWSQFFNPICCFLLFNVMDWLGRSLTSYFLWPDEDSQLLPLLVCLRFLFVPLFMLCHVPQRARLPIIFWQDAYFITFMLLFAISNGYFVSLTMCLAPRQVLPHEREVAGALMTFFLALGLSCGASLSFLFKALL

[3] = target: T3, Sodium/nucleoside cotransporter 2 (Rattus norvegicus) (UniProt Q62773); experiment: Transport through CNT2 in rat hepatocytes by oil filtration assay in presence of sodium ions in Kreb-henseleit buffer containing 100 uM NBMPR and 1 mM inosine; conditions: Hepatocyte
T3 sequence (whole entry): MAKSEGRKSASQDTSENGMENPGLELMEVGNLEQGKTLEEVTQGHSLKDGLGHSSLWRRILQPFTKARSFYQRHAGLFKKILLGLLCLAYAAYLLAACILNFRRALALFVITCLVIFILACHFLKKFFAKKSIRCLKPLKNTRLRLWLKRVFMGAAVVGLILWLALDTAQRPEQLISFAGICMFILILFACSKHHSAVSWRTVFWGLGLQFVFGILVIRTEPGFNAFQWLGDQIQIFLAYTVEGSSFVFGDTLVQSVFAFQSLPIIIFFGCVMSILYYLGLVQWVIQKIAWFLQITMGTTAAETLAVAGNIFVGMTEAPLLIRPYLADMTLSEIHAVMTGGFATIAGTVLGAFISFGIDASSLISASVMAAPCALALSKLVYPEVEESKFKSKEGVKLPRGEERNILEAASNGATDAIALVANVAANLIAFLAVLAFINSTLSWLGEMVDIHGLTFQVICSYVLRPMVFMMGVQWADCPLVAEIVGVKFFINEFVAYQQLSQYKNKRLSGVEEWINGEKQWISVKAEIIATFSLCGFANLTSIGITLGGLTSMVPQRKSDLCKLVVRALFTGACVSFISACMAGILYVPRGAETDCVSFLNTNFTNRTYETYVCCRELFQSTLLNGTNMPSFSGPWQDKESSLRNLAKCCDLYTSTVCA

Hepatocyte = experiment: Transport through CNT3 in rat hepatocytes by oil filtration assay in presence of sodium ions in Kreb-henseleit buffer containing 100 uM NBMPR and thymidine
[4] = target: T2, Equilibrative nucleoside transporter 2 (Rattus norvegicus); experiment: Transport through ENT2 in rat hepatocytes by oil filtration assay in presence of sodium ions in Kreb-henseleit buffer containing 100 uM NBMPR and 1 mM uridine; conditions: Hepatocyte
[5] = target: T1, Equilibrative nucleoside transporter 1 (Rattus norvegicus); experiment: Transport through ENT1 in rat hepatocytes by oil filtration assay in presence 100 nM of transporter inhibitor NBMRP; conditions: Hepatocyte
[6] = target: T4, Equilibrative nucleoside transporter 1 (Mus musculus) (UniProt Q9JIM1); experiment: Transport through ENT1 in mouse hepatocytes by oil filtration assay in presence 100 uM of transporter inhibitor NBMRP; conditions: Hepatocyte
T4 sequence (whole entry): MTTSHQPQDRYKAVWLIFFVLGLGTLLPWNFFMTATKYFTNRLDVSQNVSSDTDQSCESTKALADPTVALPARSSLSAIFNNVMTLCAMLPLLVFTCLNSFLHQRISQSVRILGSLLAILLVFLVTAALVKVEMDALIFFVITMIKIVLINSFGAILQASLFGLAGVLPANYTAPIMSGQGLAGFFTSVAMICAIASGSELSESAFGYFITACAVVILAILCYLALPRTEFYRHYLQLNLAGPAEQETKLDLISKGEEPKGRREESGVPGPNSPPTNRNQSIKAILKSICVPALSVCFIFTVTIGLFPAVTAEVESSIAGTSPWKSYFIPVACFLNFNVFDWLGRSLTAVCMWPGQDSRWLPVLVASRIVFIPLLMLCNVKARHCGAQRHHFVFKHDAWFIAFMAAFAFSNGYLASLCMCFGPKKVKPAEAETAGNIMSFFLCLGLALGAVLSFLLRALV

[7] = target: T2, Equilibrative nucleoside transporter 2 (Rattus norvegicus); experiment: Transport through ENT2 in rat hepatocytes by oil filtration assay in presence 100 uM of transporter inhibitor NBMRP; conditions: Hepatocyte

SMILES	Activity [1]	Activity [2]	Activity [3]	Activity (Hepatocyte)	Activity [4]	Activity [5]	Activity [6]	Activity [7]
Nc1ncnc2c1ncn2[C@@H]1O[C@H](CO)[C@@H](O)[C@H]1O	inactive	Active	inactive	inactive	inactive	inactive	inactive	inactive
NC(=O)c1ncn([C@@H]2O[C@H](CO)[C@@H](O)[C@H]2O)n1	inactive	Active	inactive	inactive	inactive	inactive	inactive	inactive
